Data set [1] is described as follows: Insulin tolerance test (ITT). Format: in vivo, C57BL/6 male mice. The conditions noted are these: HFD obese mice. The procedure: (§1) 50 C57BL/6 male mice aged about 8 weeks, are randomly assigned to five study groups (GA, GB1, GB2, GB3, GB4) of ten mice each (one cage, n=5 per condition). Mice were maintained in a pathogen free condition under a strict 12 h light/dark cycle (0600/1800 h) with 12-15 cycles/hour of air change. Mice were provided with access to respective feed and water ad libitum as per experimental conditions. Mice were housed under controlled laboratory conditions of temperature and humidity at 23±2° C. and 50±10% RH, respectively. Each study group consisted of ten animals, and treatment details of the individual study groups are given below: • Group A (GA, NC): Normal mice, maintained on normal diet (standard chow, 12% calories from fat; 23% calories from protein and 65% calories from carbohydrates) for 8 weeks, receiving neither EODF nor DHB treatment. • Group B1 (GB1): Obese mice, maintained on high fat diet (HFD, 60% calories from fat, 20% calories from protein, 20% calories from carbohydrate) for 8 weeks, receiving neither EODF nor DHB treatment. • Group B2 (GB2): Obese mice, maintained on HFD for 8 weeks, receiving only EODF and no DHB treatment. • Group B3 (GB3): Obese mice, maintained on HFD for 8 weeks, receiving only DHB treatment and no EODF. • Group B4 (GB4): Obese mice, maintained on HFD for 8 weeks, receiving DHB treatment and EODF combination. DHB was administered daily via intragastric injection (i.g.) according to a level of 70 mg/kg body weight. Mice not receiving DHB were given orally with ultrapure water. Insulin tolerance test (ITT): To measure insulin levels in blood, ITT were measured in the 6-h fasting mice (NC and HFD groups) by using a glucose analyzer. The glucose concentrations were measured by venous bleeding at 0, 15, 30, 60 and 120 min after an i.p. injection of human insulin at 0.75 U/kg. Towards the end of the final week of the study, ITT was performed for all mice (NC and HFD groups).

For data set [2] the following is noted: mice, including mice lacking the intestinal bacteria needed to break down BBR; cited from earlier work.
Data set [3] in a line: Body weight and body composition of HFD obese mice given DHB with or without EODF. Format: in vivo, C57BL/6 male mice. The procedure:
50 C57BL/6 male mice aged about 8 weeks, are randomly assigned to five study groups (GA, GB1, GB2, GB3, GB4) of ten mice each (one cage, n=5 per condition). Mice were maintained in a pathogen free condition under a strict 12 h light/dark cycle (0600/1800 h) with 12-15 cycles/hour of air change. Mice were provided with access to respective feed and water ad libitum as per experimental conditions. Mice were housed under controlled laboratory conditions of temperature and humidity at 23±2° C. and 50±10% RH, respectively.
Each study group consisted of ten animals, and treatment details of the individual study groups are given below: • Group A (GA, NC): Normal mice, maintained on normal diet (standard chow, 12% calories from fat; 23% calories from protein and 65% calories from carbohydrates) for 8 weeks, receiving neither EODF nor DHB treatment. • Group B1 (GB1): Obese mice, maintained on high fat diet (HFD, 60% calories from fat, 20% calories from protein, 20% calories from carbohydrate) for 8 weeks, receiving neither EODF nor DHB treatment. • Group B2 (GB2): Obese mice, maintained on HFD for 8 weeks, receiving only EODF and no DHB treatment. • Group B3 (GB3): Obese mice, maintained on HFD for 8 weeks, receiving only DHB treatment and no EODF. • Group B4 (GB4): Obese mice, maintained on HFD for 8 weeks, receiving DHB treatment and EODF combination.
The total experimental time is 19 weeks, including two periods: an elevent-week induction period and a subsequent eight-week treatment period.
HFD fed male mice in groups at 8 weeks of age were randomly assigned into either ad libitum, or EODF groups on a per cage basis. All cage bedding was changed to paper bedding for the duration of the model. Mice in the EODF group had total deprivation of food and ad libitum access to water from 1200 h-1200 h on alternate days with ad libitum food and water access. EODF cages were changed upon induction of fasting. Ad libitum control mice cages were changed every other day with fresh food provided.
DHB was administered daily via intragastric injection (i.g.) according to a level of 70 mg/kg body weight. Mice not receiving DHB were given orally with ultrapure water.
Each mouse's body weight is measured weekly during the study at 1200 h. Each animal's body composition was measured and recorded before the treatment and weekly during the study at 1200 h by Nuclear Magnetic Resonance Body Composition Analyzer in accordance with manufacturer's instruction. After sacrifice, subcutaneous fat and para-renal fat were weighed.

Another data set relates to ADRB3. Kind of data set: mRNA levels of ADRB3 from inguinal WAT by qRT-PCR. In kind it is in vivo, C57BL/6 male mice. The conditions noted are these: HFD obese mice. On the procedure: as §1, with “The mRNA” for “Insulin tolerance test (ITT): To measure insulin”, “of ADRB3 protein from inguinal WAT” for “in blood, ITT”, “determined” for “measured in the 6-h fasting mice (NC and HFD groups)”, “qRT-PCR.” for “using a glucose analyzer. The glucose concentrations were measured by venous bleeding at 0, 15, 30, 60 and 120 min after an i.p. injection of human insulin at 0.75 U/kg. Towards the end of the final week of the study, ITT was performed for all mice (NC and HFD groups).”

Setting [4] is: DHB + EODF combination vs EODF only.
[5] abbreviates: DHB 70 mg/kg i.g. daily + EODF combination vs EODF only.
Where [6] appears, read: DHB 70 mg/kg i.g. daily with or without EODF vs no DHB.

SMILES strings stand for the structures. “Also recorded” adds a separate entry of the source.

Consider `COc1ccc2c(c1OC)CN1CCc3cc4c(cc3C1=C2)OCO4` [DHB, Dihydroberberine], for which the insulin levels entry in data set [1] (DHB 70 mg/kg i.g. daily vs no DHB with and without EODF, FIGS. 11-14) is given as “greater reduction”. Also, in data set [1] (setting [4]), the “improving the insulin tolerance” value was “greater effects” and the “reducing the insulin levels” value is recorded as “greater effects”. Further, the insulin tolerance entry in data set [1] (human insulin 0.75 U/kg i.p., DHB vs no DHB with and without EODF) is “better”. Besides, the “absorption compared with BBR” value in data set [2] is given as “better absorbed”. In data set [3] (setting [5]), the body fat result is listed as “reducing”, the body weight entry is reported as “reducing; also recorded: greater effects on weight loss”, the para-renal fat result is reported as “reducing” and the subcutaneous fat result is given as “reducing”. Moreover, the body composition result in data set [3] (DHB 70 mg/kg i.g. daily, 8 weeks, with or without EODF, vs same HFD with and without EODF, no DHB, FIGS. 1-4) is recorded as “greater reduction in body composition”. For the same compound, in the data set on ADRB3 (setting [6]), the “ADRB3 abundance (mRNA, inguinal WAT)” value is on record as “increasing” and the “lipolysis specifically in WAT” value is on record as “upregulated”. Further, the “triggering lipolysis specifically in WAT” value in the data set on ADRB3 (setting [4]) is given as “greater effects”.

The record behind these values is patent US20250360113A1, “ADMINISTRATION OF DHB TO INCREASE BENEFIT OF LOSING WEIGHT OF INTERMITTENT FASTING” (NANJING NUTRABUILDING BIO-TECH CO., LTD., priority 2023, published 2025).
